This note sets out measurements from ChEMBL document CHEMBL3758182, “Synthesis of Alocasin A” (J Nat Prod, 2015).

Test [1] is described as follows: Antiproliferative activity against human Hep2 cells. In kind it is functional, cell-based. The settings on record: HEp-2.
In the next test the test system is HepG2. Kind of test: Antiproliferative activity against human HepG2 cells. In kind it is functional, cell-based.

Take `Oc1ccc2[nH]cc(-c3cnc(-c4c[nH]c5ccc(O)cc45)cn3)c2c1`: the figures for the 50% inhibitory concentration (IC50) (in test [1]; in the test on HepG2) were 151 µM and 85 µM, respectively.

As usually defined, the IC50 is the midpoint of a concentration-inhibition curve.
